Results from PubChem BioAssay (NCI).
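All cell lines were grown in 96-well plates and treated with compound for 48 hours. GI50: concentration for 50% inhibition of growth. TGI denotes the concentration required for complete inhibition of growth.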

Experiments:
Test in all cases: NCI anticancer screen, dose series, 48 h
MDA-MB-231 breast = system: MDA-MB-231 breast
SR leukemia = system: SR leukemia
HS 578T breast = system: HS 578T breast
T-47D breast = system: T-47D breast
PC-3 prostate = system: PC-3 prostate
MOLT-4 leukemia = system: MOLT-4 leukemia
NCI-H226 lung = system: NCI-H226 lung
OVCAR-3 ovarian = system: OVCAR-3 ovarian
U251 CNS = system: U251 CNS
A549 NSCLC = system: A549 NSCLC
MDA-MB-435 = system: MDA-MB-435
KM12 colon = system: KM12 colon
SK-MEL-5 melanoma = system: SK-MEL-5 melanoma
A498 renal = system: A498 renal
NCI-H522 lung = system: NCI-H522 lung
HCT-15 colon = system: HCT-15 colon
K-562 leukemia = system: K-562 leukemia
NCI/ADR-RES ovarian = system: NCI/ADR-RES ovarian
SF-295 CNS = system: SF-295 CNS
IGROV1 ovarian = system: IGROV1 ovarian
COLO 205 colon = system: COLO 205 colon
786-0 renal = system: 786-0 renal
NCI-H23 lung = system: NCI-H23 lung
SF-539 CNS = system: SF-539 CNS
SK-OV-3 ovarian = system: SK-OV-3 ovarian
OVCAR-4 ovarian = system: OVCAR-4 ovarian
LOX IMVI melanoma = system: LOX IMVI melanoma
MALME-3M melanoma = system: MALME-3M melanoma
MCF7 breast = system: MCF7 breast

## COc1ccc2c(CN3CCCC[C@H]3O)cc3cc4c(cc3c2c1)OCO4
MDA-MB-231 breast
  GI50: 620 nM
  TGI: 8.43 µM
SR leukemia
  GI50: 195 nM
  TGI: 854 nM
HS 578T breast
  GI50: 663 nM
  TGI: 2940 nM
T-47D breast
  GI50: 393 nM
  TGI: 5.46 µM
PC-3 prostate
  GI50: 467 nM
  TGI: 3.53 µM
MOLT-4 leukemia
  GI50: 283 nM
  TGI: 4.55 µM
NCI-H226 lung
  GI50: 251 nM
  TGI: 589 nM
OVCAR-3 ovarian
  GI50: 409 nM
  TGI: 3.4 µM
U251 CNS
  GI50: 422 nM
  TGI: 10.8 µM
A549 NSCLC
  GI50: 280 nM
  TGI: 2820 nM
MDA-MB-435
  GI50: 422 nM
  TGI: 1620 nM
KM12 colon
  GI50: 480 nM
  TGI: 5.22 µM
SK-MEL-5 melanoma
  GI50: 345 nM
  TGI: 1390 nM
A498 renal
  GI50: 542 nM
  TGI: 1470 nM
NCI-H522 lung
  GI50: 214 nM
  TGI: 559 nM
HCT-15 colon
  GI50: 369 nM
  TGI: 10.6 µM
K-562 leukemia
  GI50: 364 nM
  TGI: 4.35 µM
NCI/ADR-RES ovarian
  GI50: 435 nM
  TGI: 6.94 µM
SF-295 CNS
  GI50: 354 nM
  TGI: 2810 nM
IGROV1 ovarian
  GI50: 368 nM
  TGI: 9.3 µM
COLO 205 colon
  GI50: 185 nM
  TGI: 1360 nM
786-0 renal
  GI50: 503 nM
  TGI: 6.28 µM
NCI-H23 lung
  GI50: 445 nM
  TGI: 1820 nM
SF-539 CNS
  GI50: 375 nM
  TGI: 1830 nM
SK-OV-3 ovarian
  GI50: 275 nM
  TGI: 961 nM
OVCAR-4 ovarian
  GI50: 393 nM
  TGI: 2990 nM
LOX IMVI melanoma
  GI50: 228 nM
  TGI: 849 nM
MALME-3M melanoma
  GI50: 218 nM
  TGI: 610 nM
MCF7 breast
  GI50: 314 nM
  TGI: 3.22 µM
